Measurements from patent US10501466B2, “WDR5 inhibitors and modulators” (Vanderbilt University, priority 2017, dated 2019).

Test system: MV4,11 human leukemia cells
Assay: cells
Conditions: MV4-11, 168 h
Procedure: Anti-Proliferative Activity Using MLL-Harboring and Non-MLL Cell Lines.
Viability assays are performed by dispensing 5,000 cells into each well of an opaque 96-well plate and adding compounds at the indicated concentrations in a final volume of 100 μL and a final concentration of DMSO of 0.1% for all samples. After a set incubation period, either a 3 day or 7 day protocol, the viability of cells in each well is assessed using the CellTiter-Glo assay (Promega), read on a GloMax 96 Microplane Luminometer (Promega). Serial dilutions of each cell type are included in all assays to generate standard curves and determine assay measurements are taken within the dynamic range of the instrument. GI50 values are calculated based on three biological replicates, each with three technical replicates. Data are expressed as mean plus/minus S.E.M.

SMILES | GI50 [nM]
O=C(Cc1ccc(Cl)c(Cl)c1)N[C@@H]1CCc2ccc(-c3cn4c(n3)CCC4)cc21 [Example B11, (R)-2-(3,4-dichlorophenyl)-N-(6-(6,7-dihydro-5H-pyrrolo[1,2-a]imidazol-2-yl)-2,3-dihydro-1H-inden-1-yl)acetamide] | 8890
COc1cc(C(=O)N[C@@H]2CCc3ccc(-c4cn5c(n4)CCC5)cc32)ccc1C [Example B12, (R)—N-(6-(6,7-dihydro-5H-pyrrolo[1,2-a]imidazol-2-yl)-2,3-dihydro-1H-inden-1-yl)-3-methoxy-4-methylbenzamide] | 17200
COc1cc(C(=O)N[C@@H]2CCCc3ccc(-c4cn5c(n4)CCC5)cc32)ccc1C [Example B14, (R)—N-(7-(6,7-dihydro-5H-pyrrolo[1,2-a]imidazol-2-yl)-1,2,3,4-tetrahydronaphthalen-1-yl)-3-methoxy-4-methylbenzamide] | 22300
COc1cc(C(=O)N[C@@H]2CCc3ccc(-c4cn5c(n4)CCC5)cc32)cc(OC)c1C [Example B29, (R)—N-(6-(6,7-dihydro-5H-pyrrolo[1,2-a]imidazol-2-yl)-2,3-dihydro-1H-inden-1-yl)-3,5-dimethoxy-4-methylbenzamide] | 7250

Target: WDR5 (Homo sapiens (Human), UniProt P61964)
Assay: not given
Conditions: FPA and TR-FRET binding affinity, WDR5 WIN-site

SMILES | Ki [nM]
COc1cccc(C(=O)N(CC2CC2)C2CCc3ccc(-c4cn5c(n4)CCC5)cc32)c1 (stereo not drawn) [Example B1, N-(cyclopropylmethyl)-N-(6-(6,7-dihydro-5H-pyrrolo[1,2-a]imidazol-2-yl)-2,3-dihydro-1H-inden-1-yl)-3-methoxybenzamide] | 693
Cc1ccc(C(=O)NC2CCc3ccc(-c4cn5c(n4)CCC5)cc32)cc1C(F)(F)F (stereo not drawn) [Example B2, N-(6-(6,7-dihydro-5H-pyrrolo[1,2-a]imidazol-2-yl)-2,3-dihydro-1H-inden-1-yl)-4-methyl-3-(trifluoromethyl)benzamide] | 1380
CCOc1cccc(C(=O)NC2CCc3ccc(-c4cn5c(n4)CCC5)cc32)c1 (stereo not drawn) [Example B4, N-(6-(6,7-dihydro-5H-pyrrolo[1,2-a]imidazol-2-yl)-2,3-dihydro-1H-inden-1-yl)-3-ethoxybenzamide] | 19.1
COc1cc(C)cc(C(=O)NC2CCc3ccc(-c4cn5c(n4)CCC5)cc32)c1 (stereo not drawn) [Example B5, N-(6-(6,7-dihydro-5H-pyrrolo[1,2-a]imidazol-2-yl)-2,3-dihydro-1H-inden-1-yl)-3-methoxy-5-methylbenzamide] | 27
CC(=O)N1CCCC(C(=O)NC2CCc3ccc(-c4cn5c(n4)CCC5)cc32)C1 (stereo not drawn) [Example B7, 1-acetyl-N-(6-(6,7-dihydro-5H-pyrrolo[1,2-a]imidazol-2-yl)-2,3-dihydro-1H-inden-1-yl)piperidine-3-carboxamide] | 33
CCC(=O)N1CCCC(C(=O)NC2CCc3ccc(-c4cn5c(n4)CCC5)cc32)C1 (stereo not drawn) [Example B8, N-(6-(6,7-dihydro-5H-pyrrolo[1,2-a]imidazol-2-yl)-2,3-dihydro-1H-inden-1-yl)-1-propionylpiperidine-3-carboxamide] | 21
O=C(NC1CCc2ccc(-c3cn4c(n3)CCC4)cc21)C1CCCN(C(=O)CC(F)(F)F)C1 (stereo not drawn) [Example B9, N-(6-(6,7-dihydro-5H-pyrrolo[1,2-a]imidazol-2-yl)-2,3-dihydro-1H-inden-1-yl)-1-(3,3,3-trifluoropropanoyl)piperidine-3-carboxamide] | 90
CC(C)C(=O)N1CCCC(C(=O)NC2CCc3ccc(-c4cn5c(n4)CCC5)cc32)C1 (stereo not drawn) [Example B10, N-(6-(6,7-dihydro-5H-pyrrolo[1,2-a]imidazol-2-yl)-2,3-dihydro-1H-inden-1-yl)-1-isobutyrylpiperidine-3-carboxamide] | 70.9
CC(=O)N1CCCC(C(=O)N[C@@H]2CCc3ccc(-c4cn5c(n4)CCC5)cc32)C1 (stereo partly drawn) [Example B13, 1-acetyl-N—((R)-6-(6,7-dihydro-5H-pyrrolo[1,2-a]imidazol-2-yl)-2,3-dihydro-1H-inden-1-yl)piperidine-3-carboxamide] | 17.4
O=C(Cc1ccc(Cl)c(F)c1)N[C@@H]1CCc2ccc(-c3cn4c(n3)CCC4)cc21 [Example B15, (R)-2-(4-chloro-3-fluorophenyl)-N-(6-(6,7-dihydro-5H-pyrrolo[1,2-a]imidazol-2-yl)-2,3-dihydro-1H-inden-1-yl)acetamide] | 2.37
CCC(=O)N1CCCC(C(=O)N[C@@H]2CCc3ccc(-c4cn5c(n4)CCC5)cc32)C1 (stereo partly drawn) [Example B16, N—((R)-6-(6,7-dihydro-5H-pyrrolo[1,2-a]imidazol-2-yl)-2,3-dihydro-1H-inden-1-yl)-1-propionylpiperidine-3-carboxamide] | 7.16
CC(=O)N1CCCC(C(=O)N[C@@H]2CCCc3ccc(-c4cn5c(n4)CCC5)cc32)C1 (stereo partly drawn) [Example B17, 1-acetyl-N—((R)-7-(6,7-dihydro-5H-pyrrolo[1,2-a]imidazol-2-yl)-1,2,3,4-tetrahydronaphthalen-1-yl)piperidine-3-carboxamide] | 36.2
CCC(=O)N1CCCC(C(=O)N[C@@H]2CCCc3ccc(-c4cn5c(n4)CCC5)cc32)C1 (stereo partly drawn) [Example B18, N—((R)-7-(6,7-dihydro-5H-pyrrolo[1,2-a]imidazol-2-yl)-1,2,3,4-tetrahydronaphthalen-1-yl)-1-propionylpiperidine-3-carboxamide] | 14.3
COc1ccc(C(=O)N[C@@H]2CCc3ccc(-c4cn5c(n4)CCC5)cc32)cn1 [Example B19, (R)—N-(6-(6,7-dihydro-5H-pyrrolo[1,2-a]imidazol-2-yl)-2,3-dihydro-1H-inden-1-yl)-6-methoxynicotinamide] | 172
O=C(N[C@@H]1CCc2ccc(-c3cn4c(n3)CCC4)cc21)c1ccnc(Cl)c1 [Example B20, (R)-2-chloro-N-(6-(6,7-dihydro-5H-pyrrolo[1,2-a]imidazol-2-yl)-2,3-dihydro-1H-inden-1-yl)isonicotinamide] | 95.6
Cc1cnc(Cl)c(C(=O)N[C@@H]2CCc3ccc(-c4cn5c(n4)CCC5)cc32)c1 [Example B21, (R)-2-chloro-N-(6-(6,7-dihydro-5H-pyrrolo[1,2-a]imidazol-2-yl)-2,3-dihydro-1H-inden-1-yl)-5-methylnicotinamide] | 22.9
Cc1cc(C(=O)N[C@@H]2CCc3ccc(-c4cn5c(n4)CCC5)cc32)cc(=O)[nH]1 [Example B22, (R)—N-(6-(6,7-dihydro-5H-pyrrolo[1,2-a]imidazol-2-yl)-2,3-dihydro-1H-inden-1-yl)-6-methyl-2-oxo-1,2-dihydropyridine-4-carboxamide] | 426
Cc1cc(Cl)nc(C(=O)N[C@@H]2CCc3ccc(-c4cn5c(n4)CCC5)cc32)c1 [Example B23, (R)-6-chloro-N-(6-(6,7-dihydro-5H-pyrrolo[1,2-a]imidazol-2-yl)-2,3-dihydro-1H-inden-1-yl)-4-methylpicolinamide] | 769
Cc1ccc(C(=O)N[C@@H]2CCc3ccc(-c4cn5c(n4)CCC5)cc32)cc1O [Example B25, (R)—N-(6-(6,7-dihydro-5H-pyrrolo[1,2-a]imidazol-2-yl)-2,3-dihydro-1H-inden-1-yl)-3-hydroxy-4-methylbenzamide] | 710
COc1cncc(C(=O)N[C@@H]2CCc3ccc(-c4cn5c(n4)CCC5)cc32)c1 [Example B26, (R)—N-(6-(6,7-dihydro-5H-pyrrolo[1,2-a]imidazol-2-yl)-2,3-dihydro-1H-inden-1-yl)-5-methoxynicotinamide] | 18.5
CC(=O)Nc1cc(C(=O)N[C@@H]2CCc3ccc(-c4cn5c(n4)CCC5)cc32)ccc1C [Example B27, (R)-3-acetamido-N-(6-(6,7-dihydro-5H-pyrrolo[1,2-a]imidazol-2-yl)-2,3-dihydro-1H-inden-1-yl)-4-methylbenzamide] | 730
Cc1ccc(C(=O)N[C@@H]2CCc3ccc(-c4cn5c(n4)CCC5)cc32)c(Cl)n1 [Example B28, (R)-2-chloro-N-(6-(6,7-dihydro-5H-pyrrolo[1,2-a]imidazol-2-yl)-2,3-dihydro-1H-inden-1-yl)-6-methylnicotinamide] | 169
O=C(N[C@@H]1CCc2ccc(-c3cn4c(n3)CCC4)cc21)c1ccncc1F [Example B30, (R)—N-(6-(6,7-dihydro-5H-pyrrolo[1,2-a]imidazol-2-yl)-2,3-dihydro-1H-inden-1-yl)-3-fluoroisonicotinamide] | 3750
O=C(N[C@@H]1CCc2ccc(-c3cn4c(n3)CCC4)cc21)c1ccc(=O)[nH]c1 [Example B31, (R)—N-(6-(6,7-dihydro-5H-pyrrolo[1,2-a]imidazol-2-yl)-2,3-dihydro-1H-inden-1-yl)-6-oxo-1,6-dihydropyridine-3-carboxamide] | 835
O=C(N[C@@H]1CCc2ccc(-c3cn4c(n3)CCC4)cc21)c1cncc(F)c1 [Example B32, (R)—N-(6-(6,7-dihydro-5H-pyrrolo[1,2-a]imidazol-2-yl)-2,3-dihydro-1H-inden-1-yl)-5-fluoronicotinamide] | 568
COc1cc(C(=O)N[C@@H]2CCN(C(C)=O)c3ccc(-c4cn5c(n4)CCC5)cc32)ccc1C [Example B33, (R)—N-(1-acetyl-6-(6,7-dihydro-5H-pyrrolo[1,2-a]imidazol-2-yl)-1,2,3,4-tetrahydroquinolin-4-yl)-3-methoxy-4-methylbenzamide] | 22.2
